# Numbering of substitutions follows the chain as printed.
# Legend:
# [1] = target: T1, Opn5L1NC (Gallus gallus, UniProt B3XZF4, E159K/Q174K, form not given); assay: LC-MS of tryptic peptide with retinal oxime at Cys188; format: binding; conditions: covalent (light-induced thio-adduct at Cys188); hydroxylamine, irradiation >500 nm
# T1 construct: gene cOpn5L1; HEK293T, purified in dodecyl maltoside
# T1 sequence (B3XZF4 20-310 E159K/Q174K limits assumed): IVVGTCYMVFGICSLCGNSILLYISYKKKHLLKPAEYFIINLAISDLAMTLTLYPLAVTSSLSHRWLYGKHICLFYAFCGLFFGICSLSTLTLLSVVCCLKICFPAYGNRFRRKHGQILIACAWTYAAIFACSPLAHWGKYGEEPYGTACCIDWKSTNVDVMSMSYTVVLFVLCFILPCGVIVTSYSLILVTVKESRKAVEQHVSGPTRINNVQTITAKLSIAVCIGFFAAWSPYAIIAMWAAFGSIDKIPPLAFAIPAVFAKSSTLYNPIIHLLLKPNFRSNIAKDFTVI
# [2] = target: T2, Opn5L1NC (Gallus gallus, UniProt B3XZF4, C170T, form not given); assay: absorption spectrum of purified pigment and HPLC of extracted retinal; format: binding; conditions: covalent (retinylidene Schiff base); retinal 5 μM added to the cell culture; pH 7.0, 10 °C
# T2 construct: gene cOpn5L1; HEK293T, purified in dodecyl maltoside
# T2 sequence (B3XZF4 20-310 C170T limits assumed): T1 sequence (B3XZF4 20-310 E159K/Q174K limits assumed) with K140E, C151T, K155Q
# [3] = target: T3, Opn5L1 bearing native N- and C- termini (Gallus gallus, UniProt B3XZF4, C170T); assay: as above; format: binding; conditions: covalent (retinylidene Schiff base)
# T3 construct: gene cOpn5L1; HEK293T, purified
# T3 sequence (B3XZF4 1-441 C170T): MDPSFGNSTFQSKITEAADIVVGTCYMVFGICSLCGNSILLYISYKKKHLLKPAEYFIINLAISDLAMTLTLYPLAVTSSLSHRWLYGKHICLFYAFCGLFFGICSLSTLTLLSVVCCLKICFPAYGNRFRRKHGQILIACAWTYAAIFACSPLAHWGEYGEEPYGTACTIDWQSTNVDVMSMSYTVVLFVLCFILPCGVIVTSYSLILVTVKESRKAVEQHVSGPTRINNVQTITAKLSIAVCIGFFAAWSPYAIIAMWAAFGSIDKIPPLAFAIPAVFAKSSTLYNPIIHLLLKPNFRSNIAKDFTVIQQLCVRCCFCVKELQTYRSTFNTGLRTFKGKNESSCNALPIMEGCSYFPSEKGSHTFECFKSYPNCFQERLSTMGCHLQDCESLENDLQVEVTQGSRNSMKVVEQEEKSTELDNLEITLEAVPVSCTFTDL
# [4] = target: T4, Opn5L1 bearing native N- and C- termini (Gallus gallus, UniProt B3XZF4); assay: as above; format: binding; conditions: covalent (retinylidene Schiff base)
# T4 construct: gene cOpn5L1; HEK293T, purified
# T4 sequence (B3XZF4 1-441): T3 sequence (B3XZF4 1-441 C170T) with T170C
# [5] = target: T5, Opn5L1NC (Gallus gallus, UniProt B3XZF4); assay: as above; format: binding; conditions: covalent (retinylidene Schiff base); 10 μM retinal, 4 °C, 8 h, dark; pH 7.0
# T5 construct: gene cOpn5L1; HEK293T, purified in dodecyl maltoside
# T5 sequence (B3XZF4 20-310 limits assumed): T1 sequence (B3XZF4 20-310 E159K/Q174K limits assumed) with K140E, K155Q
# [6] = target: T6, Opn5L1N (Gallus gallus, UniProt B3XZF4); assay: […]GTPgammaS filter binding assay of Gi activation; format: biochemical; conditions: agonist; membrane fraction, 0.6 μM Gi, dark, pH 7.0, 25 °C; covalent (retinylidene Schiff base)
# T6 construct: gene cOpn5L1; HEK293T membranes
# T6 sequence (B3XZF4 20-441 limits assumed): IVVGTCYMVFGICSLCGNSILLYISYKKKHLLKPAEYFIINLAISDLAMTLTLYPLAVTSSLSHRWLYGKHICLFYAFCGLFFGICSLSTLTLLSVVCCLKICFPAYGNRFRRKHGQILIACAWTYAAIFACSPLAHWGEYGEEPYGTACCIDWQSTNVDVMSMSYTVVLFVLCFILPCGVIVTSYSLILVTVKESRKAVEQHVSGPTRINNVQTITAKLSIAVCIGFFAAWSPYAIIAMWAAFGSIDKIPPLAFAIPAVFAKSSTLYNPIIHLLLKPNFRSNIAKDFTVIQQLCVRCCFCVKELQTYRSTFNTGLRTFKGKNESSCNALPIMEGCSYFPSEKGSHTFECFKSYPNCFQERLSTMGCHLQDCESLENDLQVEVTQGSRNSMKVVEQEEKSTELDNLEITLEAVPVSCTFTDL
compound,measurement,setting,value
CC1=C(/C=C/C(C)=C/C=C/C(C)=C/C=O)C(C)(C)CCC1 [all-trans-retinal],LC-MS of tryptic peptide with retinal oxime at Cys188,[1],Light increased the amount of peptide with retinal oxime at the second cysteine
same,absorption spectrum of purified pigment and HPLC of extracted retinal,[2],the C188T mutant of Opn5L1NC showed an absorption maximum similar to that of WT
same,absorption spectrum of purified pigment and HPLC of extracted retinal,[3],verified the function of Cys188 in the mutant Opn5L1 bearing native N- and C- termini
same,absorption spectrum of purified pigment and HPLC of extracted retinal,[4],Opn5L1 bearing native N- and C- termini showed molecular characteristics indistinguishable
same,absorption spectrum of purified pigment and HPLC of extracted retinal,[5],we concluded that Opn5L1NC directly incorporates all-trans-retinal and not 11-cis-retinal
same,EC50,[6],620 nM
